According to the supplement of paper PMC11061612:

Key:
Assay in all cases: combination Emax (second highest fraction inhibited in the dose matrix, 72 h); higher = more inhibition; extreme values may be limits of the assay
[1] = test system: LS-513 (Colorectal Carcinoma)
Summary of the method: (§1)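 Bliss excess equals the observed combination effect minus the expected value EA + EB − EA·EB, where EA and EB are the effects of each agent alone. Combination Emax is the second-highest inhibition within the matrix. Inhibition was scaled from CellTiter-Glo 2.0 luminescence, with 0 set by vehicle wells and 1 by blank wells, after 72 hours of two-drug dosing of cells plated in 1536-well plates.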

[2] = test system: TE-5 (Esophageal Squamous Cell Carcinoma)
Summary of the method: as §1

[3] = test system: SW780 (Bladder Carcinoma)
Summary of the method: as §1

[4] = test system: NCI-H1793 (Lung Adenocarcinoma)
Summary of the method: as §1

[5] = test system: KM-H2 (Hodgkin's Lymphoma)
Summary of the method: as §1

[6] = test system: MDA-MB-231 (Breast Carcinoma)
Summary of the method: as §1

[7] = test system: DOV13 (Ovarian Carcinoma)
Summary of the method: as §1

[8] = test system: G-292-Clone-A141B1 (Osteosarcoma)
Summary of the method: as §1

[9] = test system: OCI-AML2 (Acute Myeloid Leukemia)
Summary of the method: as §1

NCI-H2595 (Mesothelioma) = test system: NCI-H2595 (Mesothelioma)
Summary of the method: as §1

[10] = test system: CTV-1 (T-Lymphoblastic Leukemia)
Summary of the method: as §1

NCI-H2369 (Mesothelioma) = test system: NCI-H2369 (Mesothelioma)
Summary of the method: as §1

[11] = test system: SW1990 (Pancreatic Carcinoma)
Summary of the method: as §1

[12] = test system: DMS-273 (Small Cell Lung Carcinoma)
Summary of the method: as §1

[13] = test system: MDA-MB-157 (Breast Carcinoma)
Summary of the method: as §1

[14] = test system: MFH-ino (Other Solid Carcinomas)
Summary of the method: as §1

ES7 (Ewing's Sarcoma) = test system: ES7 (Ewing's Sarcoma)
Summary of the method: as §1

[15] = test system: COR-L23 (Non-Small Cell Lung Carcinoma)
Summary of the method: as §1

[16] = test system: NALM-6 (B-Lymphoblastic Leukemia)
Summary of the method: as §1

[17] = test system: NCI-H1781 (Lung Adenocarcinoma)
Summary of the method: as §1

Row | SMILES | combination Emax [1] | combination Emax [2] | combination Emax [3] | combination Emax [4] | combination Emax [5] | combination Emax [6] | combination Emax [7] | combination Emax [8] | combination Emax [9] | combination Emax (NCI-H2595 (Mesothelioma)) | combination Emax [10] | combination Emax (NCI-H2369 (Mesothelioma)) | combination Emax [11] | combination Emax [12] | combination Emax [13] | combination Emax [14] | combination Emax (ES7 (Ewing's Sarcoma)) | combination Emax [15] | combination Emax [16] | combination Emax [17]
1 | CCN(CCO)CCCOc1ccc2c(Nc3cc(CC(=O)Nc4cccc(F)c4)[nH]n3)ncnc2c1 [AZD2811] + C[C@@H]1COCCN1C2=NC(=NC(=C2)C3(CC3)[S@](=N)(=O)C)C4=C5C=CNC5=NC=C4 [AZD6738] (first compound max 1 µM, 7x7, partner max 10 µM) | 0.746 | 0.476 | 0.334 | 0.327 | 0.766 | 0.667 | 0.873 | 0.263 | 0.984 | 0.21 | 0.84 | 0.178 | 0.513 | 0.771 | 0.894 | 0.529 | 0.865 | 0.511 | 0.957 | 0.775
2 | CC1(C)CCC(CN2CCN(c3ccc(C(=O)NS(=O)(=O)c4ccc(NCC5CCOCC5)c([N+](=O)[O-])c4)c(Oc4cnc5[nH]ccc5c4)c3)CC2)=C(c2ccc(Cl)cc2)C1 [Venetoclax] + C=CCn1c(=O)c2cnc(Nc3ccc(N4CCN(C)CC4)cc3)nc2n1-c1cccc(C(C)(C)O)n1 [AZD1775] (first compound max 1 µM, partner max 1 µM) | 0.697 | 0.451 | 0.148 | 0.481 | 0.974 | 0.481 | 0.912 | 0.263 | 1 | 0.189 | 0.992 | 0.27 | 0.783 | 0.749 | 0.905 | 0.184 | 0.888 | 0.602 | 1 | 0.449
3 | CN(C)CCCOc1ccc(-c2ccc3ncc4c(c3c2)n(C2CCOCC2)c(=O)n4C)cn1 [AZD0156] + C=CCn1c(=O)c2cnc(Nc3ccc(N4CCN(C)CC4)cc3)nc2n1-c1cccc(C(C)(C)O)n1 [AZD1775] (first compound max 1 µM, partner max 1 µM) | 0.827 | 0.352 | 0.124 | 0.387 | 0.953 | 0.374 | 0.814 | 0.197 | 0.97 | 0.12 | 0.962 | 0.207 | 0.483 | 0.589 | 0.673 | 0.169 | 0.542 | 0.298 | 0.906 | 0.43
4 | COc1cc2c(cc1OCCCCCOc1cc3c(cc1OC)C(=O)N1C=C(C)C[C@H]1C=N3)N=C[C@@H]1CC(C)=CN1C2=O [SG3199] + O=C(c1cc(Cc2n[nH]c(=O)c3ccccc23)ccc1F)N1CCN(C(=O)C2CC2)CC1 [Olaparib] (first compound max 0.001 µM, 7x7, partner max 10 µM) | 0.155 | 0.0521 | 0.128 | 0.138 | 0.264 | 0.178 | 0.249 | 0.145 | 0.747 | 0.0944 | 0.127 | 0.0848 | 0.125 | 0.308 | 0.0754 | 0.134 | 0.832 | 0.221 | 0.459 | 0.45
5 | Cc1c2c(nn1C)CSCc1cc(n(C)n1)CSc1cc(c3ccccc3c1)OCCCc1c(C(=O)O)n(C)c3c-2c(Cl)ccc13 [AZD5991] + C[C@@H]1COCCN1C2=NC(=NC(=C2)C3(CC3)[S@](=N)(=O)C)C4=C5C=CNC5=NC=C4 [AZD6738] (first compound max 1 µM, 7x7, partner max 10 µM) | 0.752 | 0.494 | 0.255 | 0.488 | 0.814 | 0.546 | 0.926 | 0.281 | 1 | 0.299 | 0.781 | 0.247 | 0.491 | 0.98 | 0.966 | 0.524 | 0.852 | 0.57 | 0.895 | 0.752
6 | CC1(C)CCC(CN2CCN(c3ccc(C(=O)NS(=O)(=O)c4ccc(NCC5CCOCC5)c([N+](=O)[O-])c4)c(Oc4cnc5[nH]ccc5c4)c3)CC2)=C(c2ccc(Cl)cc2)C1 [Venetoclax] + CN(C)CCCOc1ccc(-c2ccc3ncc4c(c3c2)n(C2CCOCC2)c(=O)n4C)cn1 [AZD0156] (first compound max 1 µM, 7x7, partner max 1 µM) | 0.316 | 0.271 | 0.212 | 0.248 | 0.206 | 0.267 | 0.326 | 0.273 | 0.993 | 0.177 | 0.0786 | 0.194 | 0.674 | 0.355 | 0.596 | 0.171 | 0.925 | 0.147 | 0.89 | 0.277
7 | CN(C)CCCOc1ccc(-c2ccc3ncc4c(c3c2)n(C2CCOCC2)c(=O)n4C)cn1 [AZD0156] + O=C(c1cc(Cc2n[nH]c(=O)c3ccccc23)ccc1F)N1CCN(C(=O)C2CC2)CC1 [Olaparib] (first compound max 3 µM, partner max 3 µM) | 0.267 | 0.302 | 0.183 | 0.496 | 0.401 | 0.405 | 0.608 | 0.411 | 0.67 | 0.139 | 0.303 | 0.181 | 0.16 | 0.433 | 0.27 | 0.256 | 0.853 | 0.39 | 0.696 | 0.585
8 | C[C@@H](c1ccc2nccn2c1)n1nnc2ncc(-c3cnn(C)c3)nc21 [Savolitinib] + Cc1c2c(nn1C)CSCc1cc(n(C)n1)CSc1cc(c3ccccc3c1)OCCCc1c(C(=O)O)n(C)c3c-2c(Cl)ccc13 [AZD5991] (first compound max 1 µM, 7x7, partner max 1 µM) | 0.155 | 0.147 | 0.164 | 0.173 | 0.11 | 0.284 | 0.153 | 0.138 | 0.88 | 0.302 | 0.113 | 0.116 | 0.127 | 0.933 | 0.639 | 0.207 | 0.554 | 0.142 | 0.226 | 0.32
9 | Cc1cc2ncnn2cc1Nc1ncc2c(n1)n(C1CCOCC1)c(=O)n2C [AZD7648] + C=CCn1c(=O)c2cnc(Nc3ccc(N4CCN(C)CC4)cc3)nc2n1-c1cccc(C(C)(C)O)n1 [AZD1775] (first compound max 10 µM, partner max 1 µM) | 0.776 | 0.515 | 0.233 | 0.416 | 0.933 | 0.434 | 0.839 | 0.295 | 0.986 | 0.244 | 0.97 | 0.314 | 0.467 | 0.611 | 0.649 | 0.39 | 0.541 | 0.36 | 0.898 | 0.482
10 | CC1(C)CCC(CN2CCN(c3ccc(C(=O)NS(=O)(=O)c4ccc(NCC5CCOCC5)c([N+](=O)[O-])c4)c(Oc4cnc5[nH]ccc5c4)c3)CC2)=C(c2ccc(Cl)cc2)C1 [Venetoclax] + C1CN(CCC1(C(=O)N[C@@H](CCO)C2=CC=C(C=C2)Cl)N)C3=NC=NC4=C3C=CN4 [Capivasertib] (first compound max 1 µM, 7x7, partner max 3 µM) | 0.335 | 0.255 | 0.163 | 0.221 | 0.153 | 0.184 | 0.353 | 0.273 | 1 | 0.235 | 0.359 | 0.134 | 0.576 | 0.743 | 0.535 | 0.258 | 0.8 | 0.245 | 0.848 | 0.5
11 | NC1(C(=O)N[C@@H](CCO)c2ccc(Cl)cc2)CCN(c2ncnc3[nH]ccc23)CC1 [Capivasertib] + C[C@@H]1COCCN1C2=NC(=NC(=C2)C3(CC3)[S@](=N)(=O)C)C4=C5C=CNC5=NC=C4 [AZD6738] (first compound max 10 µM, 7x7, partner max 10 µM) | 0.794 | 0.721 | 0.284 | 0.543 | 0.879 | 0.74 | 0.925 | 0.538 | 0.983 | 0.29 | 0.902 | 0.338 | 0.498 | 0.856 | 0.884 | 0.602 | 0.889 | 0.707 | 0.984 | 0.685
12 | NC1(C(=O)N[C@@H](CCO)c2ccc(Cl)cc2)CCN(c2ncnc3[nH]ccc23)CC1 [Capivasertib] + Cn1cnc2c(F)c(Nc3ccc(Br)cc3Cl)c(C(=O)NOCCO)cc21 [Selumetinib] (first compound max 10 µM, 7x7, partner max 10 µM) | 0.867 | 0.56 | 0.421 | 0.39 | 0.292 | 0.751 | 0.371 | 0.371 | 1 | 0.29 | 0.852 | 0.231 | 0.368 | 0.837 | 0.292 | 0.556 | 0.448 | 0.609 | 0.697 | 0.695
